Measured values: ChEMBL document CHEMBL3352681, “A cyclic GB virus C derived peptide with anti-HIV-1 activity targets the fusion peptide of HIV-1” (Eur J Med Chem, 2014)
Active and inactive are the calls of the source. The calls are words filed in the database; no cut-off is given here. Peptide text beside a SMILES is read from it.

Key:
[1] = tested on: Human immunodeficiency virus 1; experiment: Binding affinity to HIV1 fusion protein in POPG vesicles assessed as induction of conformational changes infusion secondary structure by CD spectroscopy
[2] = tested on: Human immunodeficiency virus 1; experiment: Binding affinity to biotin-labeled HIV1 fusion protein using 5 uM compound immobilized on microtiter plates by ELISA method
[3] = tested on: Human immunodeficiency virus 1; experiment: Binding affinity to [W8]HIV1 fusion protein assessed as mole fraction partition coefficients in POPG liposomes by fluorescence assay; conditions: Microsome
[4] = tested on: Human immunodeficiency virus 1; experiment: Inhibition of fusogenic capacity of HIV1 fusion protein in POPG LUVs assessed as reduction in fusion protein-induced vesicular permeabilization process at compound/fusion protein ratio of 20 by ANTS/DPX assay
[5] = tested on: Human immunodeficiency virus 1; experiment: Binding affinity to HIV1 fusion protein in PLGA nanoparticles assessed as protein-protein interactions by STD-NMR spectroscopy
[6] = tested on: Human immunodeficiency virus 1; experiment: Inhibition of fusogenic capacity of HIV1 fusion protein in rabbit RBCs assessed as reduction in fusion protein-induced hemolsysis at 10 to 1000 uM after 60 mins
[7] = tested on: Human immunodeficiency virus 1; experiment: Binding affinity to biotin-labeled HIV1 fusion protein using compound immobilized on microtiter plates by ELISA method
[8] = tested on: Human immunodeficiency virus 1; experiment: Antiviral activity against HIV1 NL4-3 in cell based assay; format: functional, organism-based; conditions: Human immunodeficiency virus 1, NL4-3
[9] = molecular target: T1, Melittin (Apis mellifera) (UniProt P01501); experiment: Binding affinity to bee venom melittin in POPG LUVs assessed as reduction in melittin-induced vesicular permeabilization process at compound/melittin ratio of 10 by ANTS/DPX assay
T1 sequence (whole entry): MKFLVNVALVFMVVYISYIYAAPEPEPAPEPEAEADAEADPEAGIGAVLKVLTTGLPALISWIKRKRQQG

[10] = tested on: Human immunodeficiency virus 1; experiment: Inhibition of fusogenic capacity of HIV1 fusion protein in rabbit RBCs assessed as reduction in fusion protein-induced hemolsysis at 1 to 100 uM after 60 mins
[11] = tested on: Human immunodeficiency virus 1; experiment: Inhibition of biotin-labeled HIV1 fusion protein binding to immobilized E1P8cyc peptide by ELISA method
[12] = tested on: Human immunodeficiency virus 1; experiment: Binding affinity to HIV1 fusion protein in DPPG lipid monolayers assessed as reduction in fusion protein-induced lipid layer phase transition at 5% by fluorescence microscopy
[13] = tested on: Human immunodeficiency virus 1; experiment: Binding affinity to NBD-labeled HIV1 fusion protein in POPG LUVs at 0.0125 to 0.4 uM using Rho-labeled compound by FRET assay
[14] = Toxicity against rabbit RBCs assessed as induction of hemolysis after 60 mins; format: cell-based, Oryctolagus cuniculus; conditions: erythrocyte, 1 h
[15] = tested on: Human immunodeficiency virus 1; experiment: Binding affinity to HIV1 fusion protein in DPPG lipid monolayers at 5% by compression isotherms analysis
Murine leukemia virus = experiment: Binding affinity to NBD-labeled MLV fusion protein in POPG LUVs at 0.0125 to 0.4 uM using Rho-labeled compound by FRET assay
HeLa [16] = experiment: Inhibition of HIV1 fusion protein assessed as inhibition of syncytium formation between HeLa cells expressing HIV-1 envelope protein and TZM-bl cells expressing human CXCR4 receptor; format: cell-based; conditions: Human immunodeficiency virus 1
[17] = tested on: Human immunodeficiency virus 1; experiment: Antiviral activity against HIV1 NL4-3 infected in TZM-bl cells assessed as inhibition of viral replication; format: functional, organism-based
HeLa [18] = experiment: Inhibition of HIV1 fusion protein assessed as inhibition of syncytium formation between HeLa cells expressing HIV-1 envelope protein and TZM-bl cells expressing human CCR5 receptor; format: cell-based; conditions: Human immunodeficiency virus 1
HeLa [19] = experiment: Inhibition of HIV1 fusion protein assessed as inhibition of syncytium formation between HeLa cells expressing HIV-1 envelope protein and TZM-bl cells expressing human CD4 receptor; format: cell-based; conditions: Human immunodeficiency virus 1

Compound	Activity [1]	Activity [2]	K (mole fraction) [3]	inhibition [4]	Activity [5]	inhibition [6]	inhibition [10]	Activity [11]	Activity [12]	Activity [13]	Activity [14]	Activity [15]	inhibition (HeLa [16])	Activity [17]	inhibition (HeLa [18])	inhibition (HeLa [19])	also measured
CC[C@H](C)[C@H](NC(=O)[C@H](CC(=O)O)NC(=O)[C@H](CCC(=O)O)NC(=O)[C@@H]1CCCN1C(=O)[C@H](C)N)C(=O)NCC(=O)N[C@@H](Cc1ccccc1)C(=O)N[C@@H](CS)C(=O)N[C@@H](CC(C)C)C(=O)N[C@@H](CCC(=O)O)C(=O)NCC(=O)NCC(=O)N[C@@H](CS)C(=O)N[C@@H](CC(C)C)C(=O)N[C@H](C(=O)N[C@@H](C)C(=O)N[C@@H](CC(C)C)C(=O)NCC(=O)O)C(C)C (H-APEDIGFCLEGGCLVALG-OH)	Active	inactive	730000	Active	inactive	Active	–	–	–	–	–	–	–	–	–	–	–
CC[C@H](C)[C@H](NC(=O)[C@H](CC(=O)O)NC(=O)[C@H](CCC(=O)O)NC(=O)[C@@H]1CCCN1C(=O)[C@H](C)N)C(=O)NCC(=O)N[C@@H](Cc1ccccc1)C(=O)N[C@H]1CSSC[C@@H](C(=O)N[C@@H](CC(C)C)C(=O)N[C@H](C(=O)N[C@@H](C)C(=O)N[C@@H](CC(C)C)C(=O)NCC(=O)O)C(C)C)NC(=O)CNC(=O)CNC(=O)[C@H](CCC(=O)O)NC(=O)[C@H](CC(C)C)NC1=O (HELM PEPTIDE1{A.P.E.D.I.G.F.C.L.E.G.G.C.L.V.A.L.G}$PEPTIDE1,PEPTIDE1,8:R3-13:R3$$$V2.0)	Active	Active	580000	–	Active	–	Dose-dependent effect	Active	Active	Active	Non-toxic	Active	–	–	–	–	Imax [4]: 40%; Activity [7]: Dose-dependent effect; IC50 [8]: 7.8 µM; Activity [9]: inactive; Activity (Murine leukemia virus): inactive
H-LEAIPCSIPPEFLFGKPFVF-OH	Active	Active	–	–	inactive	–	Active	–	Active	Active	Non-toxic	Active	Active	Active	Active	Active	–
H-SGVLTVGVALTRRVYPVP-OH	inactive	inactive	–	inactive	–	inactive	–	inactive	–	–	–	–	inactive	inactive	inactive	inactive	–
